Test [1] deals with SK-N-BE(2) cells. The test is described as follows: Primary spheroid formation assay. The format is cell-based, human. The following applies: 20 days. How it is done: (§1) For spheroid formation, adherent cells were trypsin digested (0.25% Trypsin-EDTA) for 3-4 min at 37° C., washed and suspended in the serum-free stem cell specific medium [DMEM/F-12 medium (Lonza, Switzerland) supplemented with 1% N-2 supplement, 2% B-27 without vitamin A, 20 ng/ml human recombinant epidermal growth factor (hrEGF), 20 ng/ml human recombinant basic fibroblast growth factor (bFGF) and 1% antibiotic-antimycotic solution; all from Gibco]. The dispersed single cells were plated at density of 1,000 cells/well in Costar ultra-low attachment six-well plates (Corning Inc., Corning, N.Y.), and treated with indicated concentrations of metformin. The stock solution of metformin (MP Biomedicals, Solon, Ohio) was freshly prepared in sterile triple distilled water before each experiment. Cells treated with equal volume of vehicle were used as control. Cell culture medium was changed on every fourth day. […]
(§2) To test the effect of metformin in neuroblastoma spheroid formation, SK-N-BE(2) cells were grown in stem cell specific medium on ultra-low attachment plates and the growth of spheroid formation was monitored For spheroid formation assays, SK-N-BE(2) cells were seeded at density of 1000 cells per well in six-well plate in stem cell-specific medium with or without metformin (0.1, 0.5, 1, 10 and 20 mM). After 20 days, pictures of formed spheroids were taken and the number of spheroids equal to or larger than 100 μm in size (termed primary spheroids) was counted (FIG. 7 at A and B). […] Secondary spheroid formation (as an indicator of self-renewal potential of neuroblastoma spheres) was analyzed. After 20 days, the number of formed secondary spheroids (equal or larger than 100 μm in size) was counted and plotted (FIG. 7 at C).

Test [2] relates to tumors generated from SK-N-BE(2) spheroids. The test is described as follows: In vivo xenograft of tumors generated from SK-N-BE(2) spheroids. Details: species or system athymic nude mice (nu/nu). The settings on record: 100 mg/kg daily by oral gavage, 21 days of treatment, nude mice. On the procedure:
SK-N-BE(2) neuroblastoma spheroids (15-day-old) were dissociated by trypsinization, washed with stem cell specific medium and counted. 1×10^5 cells were mixed (1:1 volume) with EGF-reduced matrigel (BD Bioscience, San Jose, Calif.) to make total volume of 0.1 ml. The cell mixture (0.1 ml) was injected subcutaneously (s.c.) into flanks of 6-week-old female nude athymic mice (nu/nu mice; Charles River Laboratories, Wilmington, Mass.). The animals were housed at 25° C. with a 12-h light/12-h dark cycle in laminar flow cabinets under specific pathogen-free conditions and given sterile water and food ad libitum. Engrafted mice were inspected for tumor appearance, and tumor growth was measured on every fourth day using a caliper. Tumor volume was calculated using the ellipsoid formula (length×width×height×0.5). […]
To assess whether metformin has inhibitory effects on the tumorigenicity of neuroblastoma stem cells, tumors were generated from neuroblastoma stem cells by inoculating tumor cells from SK-N-BE(2) spheroids (15-day-old) subcutaneously in to the flank region of athymic nude mice. […] The size of tumors was measured on every fourth day, and after 21 days of metformin treatment tumors were harvested and sizes were measured.

Test [3] has as its system SK-N-BE(2) cells. The test is described as follows: Secondary spheroid formation assay (self-renewal). The format is cell-based, human. The following applies: metformin at lower concentration (0.1 mM), 20 days. How it is done: as §1, with “metformin.” for “metformin. The stock solution of metformin (MP Biomedicals, Solon, Ohio) was freshly prepared in sterile triple distilled water before each experiment. Cells treated with equal volume of vehicle were used as control. Cell culture medium was changed on every fourth day.”
as §2, with “After 20 days, the number of formed secondary spheroids (equal or larger than 100 μm in size) was counted and plotted (FIG. 7 at C).” left out

In the next test the test system is sox2. The test is described as follows: Western blot of stem cell marker protein sox2 in metformin-treated SK-N-BE(2) cells. The format is cell-based, human. The following applies: metformin 1, 10 and 20 mM, 2 days, vs untreated control. On the procedure: (§3) SH-SY5Y, IMR-32, SK-N-BE(2) and SKNF-1 human neuroblastoma cells were purchased from The American Type Culture Collection (ATCC; Manassas, Va.), and NGP cells were kind gift from Garrett M. Brodeur (The Children's Hospital of Philadelphia, Philadelphia, Pa.). Cells were maintained as monolayer in Dulbecco's Modified Eagle's Medium (DMEM) containing 10% fetal bovine serum (FBS; Atlanta Biologicals, Lawrenceville, Ga.) and 1% antibiotic-antimycotic solution (100 unit/ml penicillin, […]; Gibco, Grand Island, N.Y.) at 37° C. in a humidified incubator with 5% CO2. For all the experiments, cell culture passages from 4-12 were used.
(§4) Cells, either from monolayer or from spheroids, were dissociated by trypsinization, washed with 1× phosphate buffered saline (PBS), pH 7.5, and lysed with 1× cell lysis buffer (Cell Signaling Technology, Danvers, Mass.) containing phenylmethylsulfonyl fluoride (PMSF) and protease inhibitors (aprotinin and leupeptin) for 30 min on ice. […] Protein concentration was determined by bicinchoninic acid method using BCA protein assay kit (Pierce/Thermo-scientific, Waltham, Mass.). Equal amount of proteins were diluted with 5×Laemmli samples loading buffer, boiled for five minutes, separated on sodium dodecyl sulfate (SDS)-polyacrylamide gel, and analyzed by Western blotting. […]
(In general: A western blot detects proteins with antibodies after separation by electrophoresis.)

In another test the test system is SK-N-BE(2) spheroids. The test is described as follows: Immunofluorescence of cleaved caspase-3 in SK-N-BE(2) spheroids. The format is cell-based, human. The following applies: metformin-treated SK-N-BE(2) spheroids. On the procedure: (§5) Neuroblastoma cells grown in Lab-TekII chamber slides (Fisher Scientific, Pittsburgh, Pa.) were treated with metformin in complete culture medium. After treatments, cells were washed with 1×PBS, fixed with 4% paraformaldehyde/PBS for 20 min, and incubated in 1×PBS buffer containing 0.1M glycine and 0.3% Triton X-100 for 30 min at room temperature. Cells were washed with 1×PBS for 4 times (10 min each) and blocked with 5% immunoglobulin (IgG)-free bovine serum albumin (BSA; Jackson ImmunoResearch Laboratories, West Grove, Pa.) in 1×PBS for overnight at 4° C. Cells were incubated with antibodies raised against sox2, oct4 and nanog, and active form of caspase-3 diluted in 2.5% BSA+0.3% Triton X-100 in PBS for overnight at 4° C. Primary antibodies were detected with secondary antibodies conjugated with AlexaFluor-488 or AlexaFluor-568 for 2 h at room temperature. After washing with 1×PBS, cells were mounted with antifade Vectashield™ mounting media (Vector Laboratories, Burlingame, Calif.), and signals were visualized under Nikon™-E600 fluorescence microscope. Nuclei were stained with 4′, 6-diamidino-2-phenylindole (DAPI; Sigma).

The test system of another test is SK-N-BE(2) tumors. The test is described as follows: Immunohistochemistry of cleaved caspase-3 and sox2 in SK-N-BE(2) tumor sections. The format is in vivo, athymic nude mice (nu/nu). The settings on record: tumors from mice treated with metformin 100 mg/kg daily oral. How it is done: For tumor tissue, paraformaldehyde-fixed paraffin-embedded tumor sections (5 μm thick) were deparaffinized in xylene, rehydrated with sequential immersion in graded ethanol (100%, 95%, 85%, 70% and 50%). Antigen unmasking was carried out by boiling slides in 10 mM sodium citrate buffer, pH 6.0, at 95° C. for 30 min. After cooling down at room temperature, sections were incubated with 0.1M glycine+0.3% Triton X-100/PBS for 30 min, and were blocked with 10% IgG-free BSA in 1×PBS for overnight at 4° C. Sections were incubated with primary antibodies diluted in 5% IgG-free BSA+0.3% Triton X-100/PBS (1:100 dilution) for overnight at 4° C. Primary antibodies were detected as described in previous paragraph. Primary antibodies used were: sox2, oct4 and nanog, and active form of caspase-3.
To determine if metformin inhibition of tumor growth resulted from apoptotic cell death in tumor stem cells, immunohistochemistry was performed by staining paraffin-embedded tumor sections with antibodies specific for active cleaved form of caspase-3 (an indicator of apoptosis) and stem cell specific marker sox2.

The subject of test [4] is SK-N-BE(2) cells. The test is described as follows: Immunofluorescence staining of cleaved caspase-3 and sox2 in SK-N-BE(2) monolayer cells. It counts as cell-based, human. The settings on record: metformin 10 mM, 2 days. How it is done:
as §5, with “Sigma). […]” for “Sigma).”

The subject of the next test is oct4. The test can be described thus: Western blot of stem cell marker protein oct4 in metformin-treated SK-N-BE(2) cells. The format is cell-based, human. The settings on record: metformin 1, 10 and 20 mM, 2 days, vs untreated control. How it is done:
as §3, §4

A further test deals with nanog. The test is described as follows: Western blot of stem cell marker protein nanog in metformin-treated SK-N-BE(2) cells. It counts as cell-based, human. The settings on record: metformin 1, 10 and 20 mM, 2 days, vs untreated control. How it is done:
as §3, §4

Turning to `CN(C)C(=N)NC(=N)N` [metformin, N′,N′-dimethylbiguanide], the “number of primary spheroids vs control” value in the test on SK-N-BE(2) cells [1] (metformin 0.1 mM) is given as “similar”. For the same molecule, in the test on SK-N-BE(2) cells [1] (metformin 0.5 mM and higher concentrations), the primary spheroid formation result is “reduced primary spheroid formation significantly”. Further, in the test with SK-N-BE(2) cells [1] (metformin 0.1, 0.5, 1, 10 and 20 mM, overall vs control), the “formation of primary spheroids (equal to or larger than 100 μm)” value is given as “significantly decreased the formation of primary neuroblastoma spheroids in a dose dependent manner”. Further, in [2], the “size of the subcutaneous tumor vs control” value is “less”. Moreover, the secondary spheroid formation result with SK-N-BE(2) cells [3] is “significantly inhibited secondary spheroid formation”. The “level of sox2 protein” value in the test on sox2 is “dose dependently decreased”. Besides, the “cleaved caspase-3 signal in sox2-expressing cells of spheroids” value with SK-N-BE(2) spheroids was “induced apoptotic death in spheroids”. Besides, the “cytoplasmic cleaved caspase-3 signals in tumor tissues” value with SK-N-BE(2) tumors was “present”. Besides, the “cleaved caspase-3 signals (apoptotic cell death)” value in the test with SK-N-BE(2) cells [4] is “present in both sox2-expressing and sox2-nonexpressing cells”. Moreover, in the test with oct4, the oct4 protein expression entry is “No change”. Moreover, the “level of nanog protein” value with nanog is reported as “dose dependently decreased”.
